Reference: PMC10899790, “A bromodomain-independent mechanism of gene regulation by the BET inhibitor JQ1: direct activation of nuclear receptor PXR” (Nucleic Acids Research, 2023)

Legend:
human PXR = biological target: T1, human PXR (Homo sapiens, UniProt O75469); experiment: PXR transactivation assay (CYP3A4-luciferase reporter)
T1 sequence (O75469 1-434): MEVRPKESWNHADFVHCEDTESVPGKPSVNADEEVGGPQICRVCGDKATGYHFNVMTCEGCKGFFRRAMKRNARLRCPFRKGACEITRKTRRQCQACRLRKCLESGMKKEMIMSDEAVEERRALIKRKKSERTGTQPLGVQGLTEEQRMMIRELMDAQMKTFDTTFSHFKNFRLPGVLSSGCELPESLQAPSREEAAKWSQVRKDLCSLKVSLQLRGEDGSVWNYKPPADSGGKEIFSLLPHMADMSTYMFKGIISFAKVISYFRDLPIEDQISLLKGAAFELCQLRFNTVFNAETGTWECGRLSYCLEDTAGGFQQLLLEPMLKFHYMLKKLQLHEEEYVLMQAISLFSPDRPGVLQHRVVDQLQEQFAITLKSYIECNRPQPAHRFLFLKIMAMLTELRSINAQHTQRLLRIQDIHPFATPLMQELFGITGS
Method: Assays were performed similarly as previously described with minor modifications ([30–32]). HepG2 cells (7.5 × 10^5/well) were plated in six-well tissue culture-treated plates. The following day, cells were co-transfected with pGL3-CYP3A4-luc (2 μg/well), pRL-CMV (200 ng/well) and 100 ng/well of either empty vector (pcDNA3), pcDNA3-FLAG-PXR, pCMV6-mPXR or pGL4.53-PGK-PXR using Lipofectamine 3000 (Thermo Fisher Scientific). Twenty-four hours after transfection, cells were trypsinized and suspended in phenol red-free DMEM (Thermo Fisher Scientific) supplemented with 5% charcoal/dextran-treated FBS (HyClone), and 1 × 10^4 cells/well in 25 μl media were added to white 384-well plates. […] After 24 h, the Dual-Glo Luciferase Assay System (Promega) and EnVision microplate reader (PerkinElmer) were used to measure firefly and Renilla luciferase activities. CMV-driven Renilla luciferase was used as an indicator of general transcriptional modulation by the test compounds and is plotted as fold change (FC) relative to DMSO controls. Assays utilizing pGL4.54[luc2/TK], pGL4.53[luc2/PGK], or pGL4.13[luc2/SV40] were similarly performed and normalized. For the PXR-responsive CYP3A4-luciferase reporter, the measured relative light units (RLU) were normalized for each well using equation (1),
RLUT0901317 represents the measured RLU from wells containing 1 μM T0901317. For mPXR assays, 5 μM PCN was used in place of T0901317.

HepG2 cells = experiment: Cytotoxicity assay (CellTiter-Glo); format: cell-based, human; details: HepG2, 24 h
Method: HepG2 cells (1 × 10^4/well in 25 μl phenol red-free DMEM supplemented with 5% charcoal/dextran-treated FBS) were plated and treated as in the transactivation assays. After 24 h compound treatment, the CellTiter-Glo Luminescent Cell Viability Assay (Promega) and an EnVision microplate reader were used to assess cytotoxicity. DMSO wells with cells served as negative controls, and wells without cells served as positive controls. The averaged luminescence signal of the wells without cells was subtracted from the luminescence signals of all other wells, and the background subtracted values were normalized to DMSO-treated wells containing cells to obtain percent cell viability.

CMV promoter = experiment: CMV-Renilla luciferase reporter; format: cell-based, human; details: HepG2, 24 h; fold change relative to DMSO
PXR LBD = biological target: T2, PXR LBD (Homo sapiens, UniProt O75469); experiment: TR-FRET PXR LBD ligand binding assay; details: TR-FRET competition with BODIPY FL vindoline
T2 construct: GST-PXR LBD protein (cat. # PV4841) were purchased from Thermo Fisher Scientific; purchased Thermo Fisher Scientific PV4841
T2 sequence (O75469 146-433 limits assumed): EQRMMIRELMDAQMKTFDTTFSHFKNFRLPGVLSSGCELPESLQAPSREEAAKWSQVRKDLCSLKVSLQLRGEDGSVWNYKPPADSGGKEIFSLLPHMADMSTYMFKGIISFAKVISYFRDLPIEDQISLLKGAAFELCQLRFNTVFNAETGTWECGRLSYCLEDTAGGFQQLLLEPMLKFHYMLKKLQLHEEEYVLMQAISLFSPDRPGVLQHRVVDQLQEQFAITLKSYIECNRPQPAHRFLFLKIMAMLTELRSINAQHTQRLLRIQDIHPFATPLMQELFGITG
Method: The TR-FRET PXR LBD ligand binding assay measures binding of PXR ligands by competition with a fluorescently labeled ligand (BODIPY FL vindoline) (Supplementary Figure S3) and was performed as previously described with minor modifications ([24]). […] BODIPY FL vindoline (15 μl/well, 133.3 nM in assay buffer) was dispensed into 384-well low-volume black assay plates. An Echo 650 Acoustic Liquid Handler then dispensed 60 nl/well of compound stocks or DMSO.

PXR = experiment: RNA induction in HepaRG: PXR RNA (RT-qPCR); format: cell-based, human; details: differentiated HepaRG, 24 h; FC relative to DMSO
Method: (§1) Experiments with HepaRG cells were conducted similarly to previously described ([45]), with modifications. HepaRG cells were seeded in collagen-coated 24-well plates at 5 × 10^5 cells/well in HCM. Cells were differentiated for two weeks with HCM containing 2% DMSO. The cells were then treated with the respective chemicals for 24 h in HCM. The final DMSO concentration for the treatment was 0.5%. Total RNA was isolated from cells with Maxwell 16 LEV SimplyRNA Tissue Kits (Promega), and cDNA was generated from 250 ng of RNA with the SuperScript VILO cDNA Synthesis Kit (Thermo Fisher Scientific). Quantitative real-time polymerase chain reaction (RT-qPCR) was conducted with 2 μl of cDNA using TaqMan Fast Advanced Master Mix (Applied Biosystems) in an Applied Biosystems 7500 Fast Real-Time PCR System. TaqMan gene expression assays specific for CYP3A4 (Hs00604506_m1), PXR (Hs01114267_m1), MYC (Hs00153408_m1) and RNA18S (Hs03928990_g1) were purchased from Thermo Fisher Scientific. Fold induction values were calculated according to the 2^−ΔΔCt method, where ΔCt represents the differences in cycle threshold numbers between the target gene and reference gene and ΔΔCt represents the relative change in these differences between the control and treatment groups ([46]). RNA18S was used as the reference gene for relative quantification of all other genes.

BET proteins = tested on: BET proteins; design: method as in PMID 20871596; details: cited from earlier work
CYP3A4 = experiment: RNA induction in HepaRG: CYP3A4 mRNA (RT-qPCR); details: differentiated HepaRG, 24 h
Method: as §1

## Cc1sc2c(c1C)C(c1ccc(Cl)cc1)=N[C@H](CC(=O)OC(C)(C)C)c1nnc(C)n1-2 [(−)-JQ1]
Human PXR; HepG2, 24 h, PGK-driven PXR
  activation of CYP3A4-luciferase reporter with PXR expressed from a PGK promoter: retained activation of the CYP3A4-luciferase reporter
Human PXR; human
  activation of PXR-responsive CYP3A4-luciferase reporter: activated the CYP3A4-luciferase reporter with similar potency but greater efficacy than JQ1
HepG2 cells
  cytotoxicity (cell viability): decreased cytotoxicity
HepG2 cells; listed as (-)-JQ1
  cytotoxicity (cell viability): less cytotoxic than JQ1
CMV promoter
  CMV-Renilla luciferase reporter expression: only marginally induced the CMV-Renilla luciferase reporter at high concentrations
PXR LBD
  binding to purified PXR LBD (binding potency): comparable to rifampicin in binding potencies
PXR
  PXR RNA expression: much less than that observed with the BET inhibitors
BET proteins
  binding to BET proteins: does not bind BET proteins
CYP3A4; FC relative to DMSO
  endogenous CYP3A4 mRNA expression: more robustly induced CYP3A4 expression than JQ1
CYP3A4; co-treated with SPA70
  endogenous CYP3A4 mRNA expression on co-treatment with SPA70: without reducing CYP3A4 in the presence of SPA70
